For series [1] the following is noted: high permeability according to the FDA; cited from earlier work.
The nature of series [2]: Plasma pharmacokinetics of LAAM in rabbits (intravenous, oral, buccal). The following applies: rabbit. The protocol: Twenty-four New Zealand white rabbits of mixed gender (weighing 3.6-4.0 kg) were obtained from ENVIGO and used in this study. […] All animal protocols were approved by the Institutional Animal Care and Use Committee at the Virginia Commonwealth University. […] Rabbits were anesthetized following an intramuscular injection of ketamine (50 mg/kg) and xylazine (5-7 mg/kg), followed by applying buccal films (1 mg/kg) into the buccal pouch. […] An oral solution (1 mg/kg) was administered by an oral syringe (1 mL), followed by an injection of ketamine/xylazine. After anesthesia, a catheter was inserted via the marginal ear vein for blood collection before dosing and at pre-determined time points (30 min before and at 5, 15, 30 min, and 1, 2, 3, 4, 8, 12, 24, 48, 72, 96, and 120 h) following administration. Eppendorf tubes contained EDTA (0.5 M) to prevent blood coagulation. Blood samples were placed on ice immediately following the collection for no longer than 5 min, plasma was separated by centrifugation (3000 g, at 0° C. for 3 min) and stored at −80° C. until analysis. At the endpoint (120 h), all animals were sacrificed. Urine, interest tissues (buccal mucosa, kidney, spleen, liver, gallbladder, muscle, brain, and spinal cord, mesenteric fat, perirenal fat, neck fat, inguinal fat) were harvested and stored at −80° C. until analysis. The buccal mucosa tissues and control in contact with fiber film formulations were collected for histopathological analysis using H&E staining. […] Non-compartmental analysis (NCA) was applied to calculate pharmacokinetic parameters derived from plasma concentration-time profiles. The absolute bioavailability was subsequently calculated by comparing respective AUCs, as shown by the following equation: […]

The conditions of series [3]: rats; cited from earlier work.
The conditions of series [4]: weak base; cited from earlier work.
For series [5] the following is noted: humans; cited from earlier work.
Where [6] appears, read: both, New Zealand white, plasma, iv, 0.8 mg/kg.
Setting [7] is: both, New Zealand white, plasma, po, 1 mg/kg.

Structures are written as SMILES. Like-named read-outs stand apart in the source and are kept apart here.

On to `COCCc1ccc(OCC(O)CNC(C)C)cc1` (centres unmarked) [metoprolol], for which the “Permeability of model drug” value in series [1] is 11 ×10⁻⁶ cm/s.

A word on the AUC(0-inf): it is the area under the concentration-time curve extrapolated to infinity. A low value points to low exposure. The term AUC(0-t) denotes exposure summed from dosing to a finite time, without extrapolation to infinity. Lower therefore signals low exposure. In general, Cmax refers to the maximum level reached in the sampled fluid or tissue. The Tmax is the time at which the peak concentration occurs. For orientation: pKa means the pH at which an ionisable group is half protonated. In series [2] (setting [6]), `CC[C@H](OC(C)=O)C(C[C@H](C)N(C)C)(c1ccccc1)c1ccccc1` [LAAM, [(3S,6S)-6-(dimethylamino)-4,4-diphenylheptan-3-yl]acetate] registered an AUC(0-inf) of 284 ± 94.7 ng·h/mL, an AUC(0-t) of 274 ± 91.6 ng·h/mL, a C0 of 288 ± 133 ng/mL and a Vd of 30.6 ± 6.3 L/kg. For the same compound, the clearance in series [2] (setting [6]) was 51.7 mL/min/kg. In series [2] (setting [7]), the AUC(0-inf) came out at 69.5 ± 10 ng·h/mL, the AUC(0-t) amounted to 65.7 ± 10.1 ng·h/mL, the Cmax was 20.7 ± 3.4 ng/mL and the Tmax was 24 ± 12 min. For the same compound, the “LAAM F (%), bioavailability, calculated by AUCinf” value in series [2] (LAAM oral solution 1 mg/kg) was 19.6 ± 2.8%. For the same compound, in series [3], the “Oral bioavailability (Foral %)” value is on record as around 60%. Further, the pKa in series [4] was 9.87. In series [5], the “Oral bioavailability (Foral %)” value is recorded as “approximately 50%”.

The values above are taken from US20250302751A1, “FORMULATIONS FOR ADM[…], norLAAM AND dinorLAAM AND METHODS OF THEIR USE TO TREAT OPIOID USE DISORDER” (VIRGINIA COMMONWEALTH UNIVERSITY, priority 2022, published 2025).
